{
  "source": "patent US9408852B2",
  "about": "“Method of lowering serum uric acid levels with (S)-tofisopam” (PHARMOS CORPORATION, priority 2011, dated 2016)",
  "tested_on": "urinary uric acid excretion",
  "test": "24 h urinary uric acid excretion in patients with hyperuricemia and gout (Example 9)",
  "type": "in vivo, human",
  "details": "for Percent change in Uu (mg/24 h), amount of uric acid excreted into the urine over 24 hours / Percent change in Uu (mg/dL), concentration of uric acid in 24 hour urine: 50 mg qd Day 1 and 7, tid Days 2 to 6",
  "experimental": "The study lasted 7 days, and patients were treated with placebo or 50 mg of enantiomerically-pure (S)-tofisopam once a day (qd) on Day 1 and Day 7 of the study, and with placebo or 50 mg of enantiomerically-pure (S)-tofisopam three times a day (tid) for Days 2 to 6 of the study. […] In Table 8, days indicated with a minus sign (e.g. D-1) indicate the time point corresponding to that number of days before treatment was initiated. For example, D-14 is the time point fourteen days before treatment was initiated.",
  "key": {"[1]": {"details": "individual patient (P#), [D 1 to D 2] from [D −2 to D −1]"}, "[2]": {"details": "individual patient (P#), [D 6 to D 7] from [D 1 to D 2]"}, "[3]": {"details": "mean (M) of patients, [D 1 to D 2] from [D −2 to D −1]"}, "[4]": {"details": "mean (M) of patients, [D 6 to D 7] from [D 1 to D 2]"}},
  "note": "Where “and” joins values, the source holds several entries; their conditions need not be identical. Equal values may be shown once.",
  "data": [
    {"smiles": "CC[C@@H]1C(C)=NN=C(c2ccc(OC)c(OC)c2)c2cc(OC)c(OC)cc21", "note": "[(S)-tofisopam]", "values": [
      {"measurement": "Uric acid excretion levels in the urine", "setting": "after initiation of treatment, 50 mg qd Day 1 and Day 7, tid Days 2 to 6, hyperuricemia and gout", "value": "increased"},
      {"measurement": "Percent change in Uu (mg/24 h), amount of uric acid excreted into the urine over 24 hours", "setting": "[1]", "value": "14.4% and 6.5% and −29.9% and 12.0% and −55.4% and 85.4% and 25.1% and 99.2% and 43.4% and −30.9% and −7.1% and 27.8%"},
      {"measurement": "Percent change in Uu (mg/dL), concentration of uric acid in 24 hour urine", "setting": "[1]", "value": "32.7% and −13.4% and 4.0% and 15.5% and −77.6% and 91.7% and 106.9% and 71.3% and 13.1% and −24.6% and −32.7% and 54.8%"},
      {"measurement": "Percent change in Uu (mg/24 h), amount of uric acid excreted into the urine over 24 hours", "setting": "[2]", "value": "4.6% and 21.3% and 43.8% and 18.3% and 1.0% and −7.0% and −11.6% and −18.9% and 7.9% and −13.3% and −22.8%"},
      {"measurement": "Percent change in Uu (mg/dL), concentration of uric acid in 24 hour urine", "setting": "[2]", "value": "−15.6% and 1.7% and −17.5% and −15.9% and −20.8% and −40.4% and −48.3% and −49.3% and −9.5% and −14.3% and −39.5%"},
      {"measurement": "Percent change in Uu (mg/24 h), amount of uric acid excreted into the urine over 24 hours", "setting": "[3]", "value": 15.9, "unit": "%"},
      {"measurement": "Percent change in Uu (mg/dL), concentration of uric acid in 24 hour urine", "setting": "[3]", "value": 20.1, "unit": "%"},
      {"measurement": "Percent change in Uu (mg/24 h), amount of uric acid excreted into the urine over 24 hours", "setting": "[4]", "value": 2.1, "unit": "%"},
      {"measurement": "Percent change in Uu (mg/dL), concentration of uric acid in 24 hour urine", "setting": "[4]", "value": "−24.5", "unit": "%"}
    ]}
  ]
}
